Source: patent publication US20250242033A1, “Novel Stannic Protoporfin Compositions, Methods of Making, and Uses Thereof” (Renibus Therapeutics, Inc., priority 2023, published 2025)

System: HO-1
Experiment: HO-1/GAPDH mRNA in cortex after IV FeS + SnPP (biomarker for oxidative stress)
Format: in vivo
Conditions: combined with iron sucrose
Procedure: The SnPP composition of Example 1 and the Comparative Example (1 micromole) were combined with iron sucrose (1 mg) to assess biomarkers for oxidative stress.

C=CC1=C(C)C2=Cc3c(C=C)c(C)c4[n]3[Sn]([Cl])([Cl])[n]3c(c(C)c(CCC(=O)O)c3=CC3=NC(=C4)C(C)=C3CCC(=O)O)=CC1=N2 [Example 1, Stannic protoporfin]
HO-1 induction relative to the comparative example, in words: lower HO-1 induction
